Data on two compounds can be found in US8518889B2, “Method of treating cancer with antibodies against long-form leukotriene B4 receptor BLT2” (Korea University Research & Business Foundation, priority 2007, dated 2013).

One assay has as its system eosinophil. As to conditions: 10 μM; cited from earlier work.
Assay [1] has as its system LNCaP cells. Description: Hoechst 33258 staining. The note with it: 5 μM, 36 hr. In kind it is cell-based, human. The procedure: Prostate cancer cells grown in 6-well cluster dishes were stimulated with 5 μM LY255283 for 36 hr in serum free RPMI 1640. The cells were fixed for 10 min with 4% formaldehyde and stained with Hoechst 33258 (50 μg/ml) (Sigma) for 10 min at 37° C. and observed under fluorescence microscopy (Carl Zeiss).

Assay [2] concerns acute lung injury induced by endotoxin. As to conditions: pigs; cited from earlier work.
Assay [3] deals with LNCaP cells. Kind of assay: cell counting with trypan blue. The format is cell-based, human. The note with it: 1 μM and 5 μM, serum free RPMI 1640. The procedure:
The effect of LY255283 was observed by counting of cell number. The cells were grown in 6-well cluster dishes to 70% confluence with 10% FBS-supplemented medium. At day 0, the medium was replaced with serum free RPMI 1640 and cells were stimulated with DMSO or 1 μM and 5 μM LY255283. The cells were harvested at various intervals. Cells were washed with PBS and collected by brief trypsinization. Total cell number was determined by counting each sample in duplicate with a hemocytometer using trypan blue dye. The cells treated with LY255283 in serum free RPM11640 were harvested at various intervals. […] In contrast, PWR-1 E cells which expressed few level of BLT2 were not affected by LY255283.

Assay [4] has as its system LNCaP cells. Kind of assay: cell cycle analysis (PI, flow cytometry). The format is cell-based, human. As to conditions: 5 μM, 48 hr. The procedure:
After LNCaP cells and PWR-1E cells were treated with 5 μM LY255283 for 48 hr, the cells were fixed with 70% ethanol and stained with Pl. Cell cycle was analyzed using flow cytometry. The cells grown in 6-well cluster dishes were stimulated with 5 μM LY255283 for 48 h in serum free RPMI 1640. The cells which were collected by brief trypsinization were fixed for 12 hr with 70% ethanol at 4° C. The cells were resuspended in PBS containing RNase A (100 μg/ml) and incubated for 30 min at 37° C. The cells were stained with propidium iodide (50 μg/ml) (Sigma). Acquisition and analysis was performed by FACS using Cell Quest Alias software (BD Bioscience).
In general terms: In flow cytometry, cells or beads pass a laser one at a time.

For assay [5], the system named is VEGF-induced angiogenesis. Kind of assay: VEGF-induced angiogenesis (Matrigel plug, HUVEC tube formation and transmigration). The note with it: mouse, in vivo. Further details: species or system FVB mice. The procedure:
FVB wild-type mice or BLT2 TG mice (female, 8-10 wk old) were subcutaneously injected with 400 μl of growth factor-reduced Matrigel from BD Biosciences containing heparin (20 units) and the agents to be tested. After 7 days, the mice were killed, and the solidified Matrigel was excised, fixed in 10% formalin, embedded in paraffin, cut into 5-μm sections and stained with anti-vWF antibody according to the manufacturer's instructions in the Blood Vessel Staining Kit (Chemicon). Each stained Matrigel section was photographed using a BX51 microscope equipped with a DP71 digital camera (Olympus), and the area of vWF-positive blood vessels was calculated using Image J software.
Growth factor-reduced Matrigel (300 μl; BD Biosciences, San Diego, Calif.) was added to each 24-well plate and polymerized for 12 h at 37° C. […] After 12 hr, five randomly selected areas were photographed using a CKX41 microscope equipped with a DP71 digital camera, and tube lengths were measured and quantified using Image J software, the image processing program developed at the U.S. National Institutes of Health (NIH). […]
The cells were then allowed to migrate to the lower side of the chambers, which contained LTB4, 12(S)-HETE or VEGF. […] Cell migration was quantified by counting the cells on the lower side of the filter after they were photographed using a CKX41 microscope equipped with a DP71 digital camera. […]

A further assay concerns SV-HUC-1 cells. Description: [3H]-thymidine incorporation assay. The format is cell-based. The note with it: 48 hr. The procedure: Cells were seed in 96-well plate at the density of 1.0×10^4/well. After 24 hr incubation in RPMI 1640 supplemented with 10% FBS, the media was replaced with RPMI 1640 containing 0.5% FBS for 12 hr. After cells were treated with different concentration BLT antagonists. Then [^3H]-thymidine (1 μCi/ml) (PerkinElmer Life Sciences) was added at 12 hr after antagonists treatment and after 36 hr of further incubation, cells were harvested on the filtermat (PerkinElmer Life Science) and filtermat was dried and packaged in the sample bag (PerkinElmer Life Science). Finally, Betaplate scint (PerkinElmer Life Science) was added to the filtermat, and the radioactivity was counted in a liquid scintillation counter (MicroBeta, Wallac/PerkinElmer). […] LY255283 inhibited proliferation by at least 50% at a concentration of 10 μM at 48 hr.
On the technique in general: Uptake of a labelled nucleoside into DNA is a usual measure of proliferation.

For `CCc1cc(C(C)=O)c(O)cc1OCCCCCC(C)(C)c1nnn[nH]1` [LY255283, 1-[5-ethyl-2-hydroxy-4-[[6-methyl-6-(1H-tetrazol-5-yl)heptyl]oxy]phenyl]-ethanone], the inhibit eosinophil chemotaxis in the assay on eosinophil is listed as 80%. Also, in the assay with LNCaP cells [1], the “nuclei condensation or fragmentation (Hoechst 33258)” value is recorded as “Nuclei condensation of fragmentation was observed”. Also, in assay [2], the “activation of neutrophils and acute lung injury induced by endotoxin” value is “limits activation of neutrophils and prevents acute lung injury”. In addition, the “number of LNCaP cells” value with LNCaP cells [3] is “significantly reduced”. For the same compound, the sub-G1 population result in the assay with LNCaP cells [4] was “increased population of cells with sub-GI DNA content”. Further, in assay [5], the VEGF-induced angiogenesis result is recorded as “suppressed VEGF-induced angiogenesis”.
Take `CCCCC/C=C\C[C@@H](O)/C=C/c1cccc(C[C@@H](O)CCCCO)n1` [U75302]: the “inhibition of thymidine incorporation / cell proliferation” value with SV-HUC-1 cells was “not effect”.
